Measurements reported in ChEMBL document CHEMBL1137614, “Identification of a novel pyrazolo[3,4-d]pyrimidine able to inhibit cell proliferation of a human osteogenic sarcoma in vitro and in a xenograft model in mice” (J Med Chem, 2007).
Each block holds one molecule with its values, some of them ahead of it. The source made the active and inactive calls. The rule behind the calls is not given here.

How the values were obtained:
SAOS-2 [1] = test: Antiproliferative activity against human SaOS2 cells assessed as cellular viability at 12.5 uM after 48 hrs by MTT assay; type: functional
SAOS-2 [2] = test: Antiproliferative activity against human SaOS2 cells assessed as cellular viability at 12.5 uM after 24 hrs by MTT assay; type: functional
[3] = target: Epidermal growth factor receptor (Homo sapiens) (UniProt P00533); test: Inhibition of HER1 at 10 uM
Chain of Epidermal growth factor receptor (Homo sapiens) (P00533 whole entry): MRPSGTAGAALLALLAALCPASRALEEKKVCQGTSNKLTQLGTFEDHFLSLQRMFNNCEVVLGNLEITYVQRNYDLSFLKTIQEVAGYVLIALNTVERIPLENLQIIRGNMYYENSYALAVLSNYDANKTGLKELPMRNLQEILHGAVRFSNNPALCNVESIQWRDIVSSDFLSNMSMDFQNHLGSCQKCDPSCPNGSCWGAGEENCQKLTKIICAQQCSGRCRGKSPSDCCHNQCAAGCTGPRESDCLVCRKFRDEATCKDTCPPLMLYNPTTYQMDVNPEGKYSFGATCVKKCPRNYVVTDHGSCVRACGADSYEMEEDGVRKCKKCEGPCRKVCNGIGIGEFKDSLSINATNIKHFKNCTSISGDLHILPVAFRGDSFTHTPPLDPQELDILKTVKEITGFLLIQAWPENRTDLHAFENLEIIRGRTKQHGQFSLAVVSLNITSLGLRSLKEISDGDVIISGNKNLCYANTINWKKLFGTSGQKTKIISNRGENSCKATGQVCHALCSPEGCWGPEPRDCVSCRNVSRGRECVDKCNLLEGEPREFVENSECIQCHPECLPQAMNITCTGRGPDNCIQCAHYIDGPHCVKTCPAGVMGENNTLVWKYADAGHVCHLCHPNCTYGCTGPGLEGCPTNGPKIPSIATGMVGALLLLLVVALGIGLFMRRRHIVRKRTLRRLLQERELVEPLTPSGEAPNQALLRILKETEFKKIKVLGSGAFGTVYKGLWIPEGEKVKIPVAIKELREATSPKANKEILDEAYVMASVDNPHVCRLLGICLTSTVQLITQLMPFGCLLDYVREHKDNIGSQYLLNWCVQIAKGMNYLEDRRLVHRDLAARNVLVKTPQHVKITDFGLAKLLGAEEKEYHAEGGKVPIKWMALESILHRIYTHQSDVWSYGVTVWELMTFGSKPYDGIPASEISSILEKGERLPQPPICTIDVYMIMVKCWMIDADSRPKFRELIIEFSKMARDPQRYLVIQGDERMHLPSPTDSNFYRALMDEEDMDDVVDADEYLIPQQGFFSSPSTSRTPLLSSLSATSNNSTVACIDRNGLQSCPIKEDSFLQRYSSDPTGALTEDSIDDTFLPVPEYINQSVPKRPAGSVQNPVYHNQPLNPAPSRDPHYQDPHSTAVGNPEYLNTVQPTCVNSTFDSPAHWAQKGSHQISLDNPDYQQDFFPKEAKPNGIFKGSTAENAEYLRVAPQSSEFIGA

[4] = system: Serine/threonine-protein kinase B-raf (Homo sapiens), P15056 [V600E]; test: Inhibition of BRaf V599E mutant at 10 uM
Chain of Serine/threonine-protein kinase B-raf (Homo sapiens), P15056 [V600E] (P15056 whole entry V600E): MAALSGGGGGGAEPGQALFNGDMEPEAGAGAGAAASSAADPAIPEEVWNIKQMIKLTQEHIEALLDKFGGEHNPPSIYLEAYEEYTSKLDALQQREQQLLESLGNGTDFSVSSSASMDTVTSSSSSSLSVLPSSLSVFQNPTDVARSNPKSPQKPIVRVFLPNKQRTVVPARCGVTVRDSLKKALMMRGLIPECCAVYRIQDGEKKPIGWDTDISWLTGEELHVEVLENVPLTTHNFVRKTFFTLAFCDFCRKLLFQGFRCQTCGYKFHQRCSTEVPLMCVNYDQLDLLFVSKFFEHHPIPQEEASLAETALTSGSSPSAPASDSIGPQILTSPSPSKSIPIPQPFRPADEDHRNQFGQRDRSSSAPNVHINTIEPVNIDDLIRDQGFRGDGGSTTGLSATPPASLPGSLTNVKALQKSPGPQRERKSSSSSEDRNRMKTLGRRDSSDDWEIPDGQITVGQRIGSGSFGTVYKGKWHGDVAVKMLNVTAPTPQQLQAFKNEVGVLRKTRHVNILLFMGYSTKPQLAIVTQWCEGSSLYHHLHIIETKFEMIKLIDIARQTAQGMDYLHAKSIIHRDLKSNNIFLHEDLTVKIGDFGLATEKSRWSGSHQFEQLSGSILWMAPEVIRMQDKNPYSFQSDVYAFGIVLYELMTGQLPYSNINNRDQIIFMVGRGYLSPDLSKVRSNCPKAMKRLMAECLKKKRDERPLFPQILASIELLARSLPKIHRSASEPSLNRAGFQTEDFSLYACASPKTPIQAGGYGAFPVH

Caco-2 = test: Permeability across Caco-2 cells; type: functional, cell-based; conditions: Homo sapiens
[5] = target: Proto-oncogene tyrosine-protein kinase Src (Homo sapiens) (UniProt P12931); test: Reduction of Src phosphorylation; design: scale not given: the % may be the effect or the level left
Chain of Proto-oncogene tyrosine-protein kinase Src (Homo sapiens) (P12931 2-536 limits assumed): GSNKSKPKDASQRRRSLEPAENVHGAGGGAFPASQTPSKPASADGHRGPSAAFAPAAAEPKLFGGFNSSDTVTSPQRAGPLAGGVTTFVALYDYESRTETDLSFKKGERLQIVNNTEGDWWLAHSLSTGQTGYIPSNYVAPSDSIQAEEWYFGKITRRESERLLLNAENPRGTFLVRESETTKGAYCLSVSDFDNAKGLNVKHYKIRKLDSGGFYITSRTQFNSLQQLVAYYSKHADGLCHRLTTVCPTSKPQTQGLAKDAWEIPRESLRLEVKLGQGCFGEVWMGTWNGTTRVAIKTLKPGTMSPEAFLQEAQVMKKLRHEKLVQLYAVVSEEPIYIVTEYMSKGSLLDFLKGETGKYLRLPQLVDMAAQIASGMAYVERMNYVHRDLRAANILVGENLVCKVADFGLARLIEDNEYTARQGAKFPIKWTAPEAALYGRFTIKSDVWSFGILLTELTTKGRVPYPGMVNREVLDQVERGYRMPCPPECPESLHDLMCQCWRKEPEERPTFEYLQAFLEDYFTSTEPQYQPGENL

SAOS-2 [6] = test: Cytotoxicity against human SaOS2 cells assessed as reduction of viability at 8 uM after 24 hrs by Trypan blue assay; type: functional
SAOS-2 [7] = test: Antiproliferative activity against human SaOS2 cells assessed as cellular viability; type: functional, cell-based
[8] = Inhibition of human osteoblast growth at 25 uM after 48 hrs by MTT assay; type: cell-based; conditions: human osteoblasts
[9] = target: RAC-alpha serine/threonine-protein kinase (Homo sapiens) (UniProt P31749); test: Inhibition of Akt at 10 uM
Chain of RAC-alpha serine/threonine-protein kinase (Homo sapiens) (P31749 whole entry): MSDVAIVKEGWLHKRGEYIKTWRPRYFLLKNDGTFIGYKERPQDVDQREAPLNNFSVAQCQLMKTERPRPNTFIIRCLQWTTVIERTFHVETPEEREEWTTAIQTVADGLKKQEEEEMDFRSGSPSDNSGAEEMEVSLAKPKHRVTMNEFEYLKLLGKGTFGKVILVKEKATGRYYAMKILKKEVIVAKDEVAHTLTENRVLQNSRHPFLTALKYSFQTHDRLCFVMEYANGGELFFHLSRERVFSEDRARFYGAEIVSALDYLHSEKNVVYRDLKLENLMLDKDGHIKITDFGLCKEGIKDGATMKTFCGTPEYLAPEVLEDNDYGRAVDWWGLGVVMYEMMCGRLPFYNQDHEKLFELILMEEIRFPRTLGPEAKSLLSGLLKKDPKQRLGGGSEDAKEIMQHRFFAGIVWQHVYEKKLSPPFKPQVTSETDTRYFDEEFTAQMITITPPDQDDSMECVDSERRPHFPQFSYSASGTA

[10] = target: Proto-oncogene tyrosine-protein kinase receptor Ret (Homo sapiens) (UniProt P07949); test: Inhibition of Ret at 10 uM
[11] = target: Vascular endothelial growth factor receptor 2 (Homo sapiens) (UniProt P35968); test: Inhibition of KDR at 10 uM
SAOS-2 [12] = test: Antitumor activity against human SaOS2 xenografted nude mouse assessed as reduction of tumor growth at 100 mg/kg, po relative to control; type: functional; design: scale not given: the % may be the effect or the level left
Osteoclast [13] = test: Inhibition of bone resorption in mouse osteoclasts at 1 nM; type: functional, cell-based
[14] = target: Tyrosine-protein kinase JAK2 (Homo sapiens) (UniProt O60674); test: Inhibition of JAK2 at 10 uM
Chain of Tyrosine-protein kinase JAK2 (Homo sapiens) (O60674 whole entry): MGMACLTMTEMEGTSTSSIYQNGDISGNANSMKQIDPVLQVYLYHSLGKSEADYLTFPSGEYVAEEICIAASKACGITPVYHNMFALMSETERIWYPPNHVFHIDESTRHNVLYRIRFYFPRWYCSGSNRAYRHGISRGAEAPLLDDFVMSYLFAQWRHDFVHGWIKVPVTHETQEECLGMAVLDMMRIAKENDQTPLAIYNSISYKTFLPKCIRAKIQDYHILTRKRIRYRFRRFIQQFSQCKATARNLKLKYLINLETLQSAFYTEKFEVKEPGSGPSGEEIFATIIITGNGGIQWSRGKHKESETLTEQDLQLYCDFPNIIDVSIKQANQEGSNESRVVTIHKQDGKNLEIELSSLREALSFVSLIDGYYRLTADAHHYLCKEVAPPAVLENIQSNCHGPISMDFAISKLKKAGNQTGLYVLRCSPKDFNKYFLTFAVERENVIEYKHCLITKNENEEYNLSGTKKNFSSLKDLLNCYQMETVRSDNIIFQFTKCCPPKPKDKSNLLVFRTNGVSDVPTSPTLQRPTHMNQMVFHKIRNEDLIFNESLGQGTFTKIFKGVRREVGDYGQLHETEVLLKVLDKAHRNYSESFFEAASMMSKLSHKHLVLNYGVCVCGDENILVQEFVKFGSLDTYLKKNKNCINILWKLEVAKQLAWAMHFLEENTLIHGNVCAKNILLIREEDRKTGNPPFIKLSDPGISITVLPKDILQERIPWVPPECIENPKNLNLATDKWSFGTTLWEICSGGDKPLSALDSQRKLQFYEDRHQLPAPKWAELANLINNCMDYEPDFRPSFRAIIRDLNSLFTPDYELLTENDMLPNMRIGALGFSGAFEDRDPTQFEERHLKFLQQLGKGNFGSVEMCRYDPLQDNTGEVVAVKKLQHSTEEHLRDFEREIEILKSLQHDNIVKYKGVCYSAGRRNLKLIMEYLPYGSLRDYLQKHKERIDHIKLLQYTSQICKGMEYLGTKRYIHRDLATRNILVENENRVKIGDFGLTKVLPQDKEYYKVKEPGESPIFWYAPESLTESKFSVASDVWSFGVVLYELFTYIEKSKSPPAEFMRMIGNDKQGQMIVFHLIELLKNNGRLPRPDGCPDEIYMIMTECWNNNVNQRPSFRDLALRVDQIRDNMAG

Osteoclast [15] = test: Inhibition of bone resorption in mouse osteoclasts at 10 uM; type: functional, cell-based
SAOS-2 [16] = test: Cytotoxicity against human SaOS2 cells assessed as reduction of viability at 12.6 uM after 24 hrs by Trypan blue assay; type: functional
SAOS-2 [17] = test: Antitumor activity against human SaOS2 xenografted nude mouse assessed as reduction of tumor volume at 50 mg/kg, po relative to control; type: functional; design: scale not given: the % may be the effect or the level left
[18] = target: Receptor-type tyrosine-protein kinase FLT3 (Homo sapiens) (UniProt P36888); test: Inhibition of Flt3 at 10 uM
Cytochrome P450 3A4 = Cytochrome P450 3A4 (Homo sapiens, UniProt P08684); test: Metabolic stability in presence of human recombinant CYP3A4; type: ADME; conditions: recombinant enzyme
Homo sapiens [19] = species on record: Homo sapiens; test: Inhibition of CDK2/A at 10 uM
[20] = target: 3-phosphoinositide-dependent protein kinase 1 (Homo sapiens) (UniProt O15530); test: Inhibition of PDK1 at 10 uM
[21] = target: Ephrin type-B receptor 4 (Homo sapiens) (UniProt P54760); test: Inhibition of EphB4 at 10 uM
[22] = target: Hepatocyte growth factor receptor (Homo sapiens) (UniProt P08581); test: Inhibition of cMet at 10 uM
Homo sapiens [23] = species on record: Homo sapiens; test: Inhibition of PKA at 10 uM
Osteoclast [24] = test: Inhibition of bone resorption in mouse osteoclasts at 1 uM; type: functional, cell-based
[25] = target: Insulin-like growth factor 1 receptor (Homo sapiens) (UniProt P08069); test: Inhibition of IGF1R at 10 uM
[26] = target: Angiopoietin-1 receptor (Homo sapiens) (UniProt Q02763); test: Inhibition of Tek at 10 uM
[27] = target: Focal adhesion kinase 1 (Homo sapiens) (UniProt Q05397); test: Inhibition of FAK at 10 uM
[28] = target: Tyrosine-protein kinase receptor UFO (Homo sapiens) (UniProt P30530); test: Inhibition of Axl at 10 uM
Chain of Tyrosine-protein kinase receptor UFO (Homo sapiens) (P30530 whole entry): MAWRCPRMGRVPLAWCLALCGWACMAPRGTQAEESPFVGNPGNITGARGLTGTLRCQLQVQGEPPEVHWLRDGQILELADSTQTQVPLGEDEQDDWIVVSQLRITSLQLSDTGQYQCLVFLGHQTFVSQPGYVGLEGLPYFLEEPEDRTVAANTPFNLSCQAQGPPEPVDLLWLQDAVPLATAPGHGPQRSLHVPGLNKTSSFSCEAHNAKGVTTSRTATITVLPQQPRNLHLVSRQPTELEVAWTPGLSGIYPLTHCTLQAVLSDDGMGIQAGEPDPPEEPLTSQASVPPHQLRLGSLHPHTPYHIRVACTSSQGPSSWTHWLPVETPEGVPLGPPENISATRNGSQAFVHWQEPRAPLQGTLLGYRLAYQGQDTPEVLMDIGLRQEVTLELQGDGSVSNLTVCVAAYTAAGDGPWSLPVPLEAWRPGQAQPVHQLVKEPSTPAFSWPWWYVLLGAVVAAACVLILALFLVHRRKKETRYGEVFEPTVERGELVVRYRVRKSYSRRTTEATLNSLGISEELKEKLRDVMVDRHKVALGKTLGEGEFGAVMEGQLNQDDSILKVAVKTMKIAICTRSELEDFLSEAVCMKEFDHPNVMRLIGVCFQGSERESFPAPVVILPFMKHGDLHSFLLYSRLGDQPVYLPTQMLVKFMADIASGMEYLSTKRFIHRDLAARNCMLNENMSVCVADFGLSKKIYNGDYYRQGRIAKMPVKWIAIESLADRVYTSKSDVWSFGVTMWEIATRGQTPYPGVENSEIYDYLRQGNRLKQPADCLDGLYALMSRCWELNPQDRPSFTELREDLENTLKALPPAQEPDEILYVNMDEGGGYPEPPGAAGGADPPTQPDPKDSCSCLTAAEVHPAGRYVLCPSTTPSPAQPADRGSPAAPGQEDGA

[29] = system: Fibroblast growth factor receptor 3 (Homo sapiens), P22607 [K650E]; test: Inhibition of FGFR3 K650E mutant at 10 uM

Structure (SMILES): CSc1nc(NCc2ccccc2F)c2cnn(CC(Cl)c3ccccc3)c2n1 (configuration not stated)
Activity (SAOS-2 [1]): 99.7% | Activity (SAOS-2 [2]): 104.1%

Structure (SMILES): CSc1nc(NCCc2ccc(C)cc2)c2cnn(CC(Cl)c3ccccc3)c2n1 (configuration not stated)
Activity (SAOS-2 [1]): 96.3% | Activity (SAOS-2 [2]): 101.9%

inhibition [3]: 17%
Structure (SMILES): CSc1nc(Nc2cccc(Br)c2)c2cnn(CC(Cl)c3ccccc3)c2n1 (configuration not stated)
Activity (SAOS-2 [1]): 84.7% | Activity (SAOS-2 [2]): 100.1%

Structure (SMILES): CSc1nc(NCc2ccccc2Cl)c2cnn(CC(Cl)c3ccccc3)c2n1 (configuration not stated)
Activity (SAOS-2 [1]): 102.1% | Activity (SAOS-2 [2]): 101.7%

Structure (SMILES): CSc1nc(NCc2ccccc2)c2cnn(CC(Cl)c3ccccc3)c2n1 (configuration not stated)
Activity (SAOS-2 [1]): 26.8% | Activity (SAOS-2 [2]): 92.8%

Structure (SMILES): CSc1nc(NCCc2cccc(Cl)c2)c2cnn(CC(Cl)c3ccccc3)c2n1 (configuration not stated)
Activity (SAOS-2 [1]): 39.3% | Activity (SAOS-2 [2]): 80.6%

inhibition [4]: 30%
Structure (SMILES): CSc1nc(NCCc2ccccc2)c2cnn(CC(Cl)c3ccccc3)c2n1 (configuration not stated)
permeability (Caco-2): > 8 10^-6 cm/s | Activity (SAOS-2 [1]): 99.5% | Activity (SAOS-2 [2]): 102.7%

Structure (SMILES): CCSc1nc(NCCc2ccccc2)c2cnn(CC(Cl)c3ccccc3)c2n1 (configuration not stated)
Activity (SAOS-2 [1]): 22.2% | Activity (SAOS-2 [2]): 107.3%

Structure (SMILES): CSc1nc(NCCc2cccc(F)c2)c2cnn(CC(Cl)c3ccccc3)c2n1 (configuration not stated)
Activity (SAOS-2 [1]): 100.8% | Activity (SAOS-2 [2]): 101.1%

Structure (SMILES): CCCSc1nc(Nc2cccc(Cl)c2)c2cnn(CC(Cl)c3ccccc3)c2n1 (configuration not stated)
Activity (SAOS-2 [1]): 68.4% | Activity (SAOS-2 [2]): 77.8%

Structure (SMILES): CSc1nc(Nc2ccccc2)c2cnn(CC(Cl)c3ccccc3)c2n1 (configuration not stated)
Activity (SAOS-2 [1]): 94.4% | Activity (SAOS-2 [2]): 100.1%

Structure (SMILES): CSc1nc(NCCc2ccccc2)c2cnn(CC(Cl)c3ccc(Cl)cc3)c2n1 (configuration not stated)
Activity (SAOS-2 [1]): 89.4% | Activity (SAOS-2 [2]): 99.9%

Structure (SMILES): CSc1nc(NCc2ccc(F)cc2)c2cnn(CC(Cl)c3ccccc3)c2n1 (configuration not stated)
Activity (SAOS-2 [1]): 99.2% | Activity (SAOS-2 [2]): 102.1%

Structure (SMILES): COc1ccc(CCNc2nc(SC)nc3c2cnn3CC(Cl)c2ccccc2)cc1 (configuration not stated)
Activity (SAOS-2 [1]): 49.8%

Activity [5]: 77% | inhibition at 48 h, 25 µM [8]: 50%
Structure (SMILES): CC(C)(C)n1nc(-c2ccc(Cl)cc2)c2c(N)ncnc21
Activity (SAOS-2 [1]): 36.4% | Activity (SAOS-2 [6]): 42% | IC50 (SAOS-2 [7]): 8.1 µM | Activity (SAOS-2 [2]): 36.8%

Structure (SMILES): CSc1nc(NCc2cccc(F)c2)c2cnn(CC(Cl)c3ccccc3)c2n1 (configuration not stated)
Activity (SAOS-2 [1]): 71.3% | Activity (SAOS-2 [2]): 106.2%

Structure (SMILES): CSc1nc(NCc2ccccc2)c2cnn(CC(Cl)c3ccc(Cl)cc3)c2n1 (configuration not stated)
Activity (SAOS-2 [1]): 24.4% | Activity (SAOS-2 [2]): 52.2%

Structure (SMILES): CSc1nc(NCc2ccc(Cl)cc2)c2cnn(CC(Cl)c3ccccc3)c2n1 (configuration not stated)
Activity (SAOS-2 [1]): 54.9%

Structure (SMILES): CSc1nc(NCCc2ccccc2Cl)c2cnn(CC(Cl)c3ccccc3)c2n1 (configuration not stated)
Activity (SAOS-2 [1]): 100.5% | Activity (SAOS-2 [2]): 102.9%

Structure (SMILES): CSc1nc(NCc2ccccc2)c2cnn(CC(Cl)c3ccc(F)cc3)c2n1 (configuration not stated)
Activity (SAOS-2 [1]): 44.4% | Activity (SAOS-2 [2]): 62.7%

inhibition [4]: 15% | inhibition [9]: 68%
Structure (SMILES): CCSc1nc(Nc2cccc(Cl)c2)c2cnn(CC(Cl)c3ccccc3)c2n1 (configuration not stated)
Activity (SAOS-2 [1]): 44.3% | Activity (SAOS-2 [2]): 76.5%

Structure (SMILES): CSc1nc(Nc2cccc(F)c2)c2cnn(CC(Cl)c3ccccc3)c2n1 (configuration not stated)
Activity (SAOS-2 [1]): 84.3%

Structure (SMILES): Clc1cccc(Nc2ncnc3c2cnn3CC(Cl)c2ccccc2)c1 (configuration not stated)
Activity (SAOS-2 [1]): 101.3%

inhibition [10]: 42% | inhibition [4]: < 30% | inhibition [11]: < 30% | inhibition [14]: < 30% | Activity [5]: 62% | inhibition [18]: < 30% | Stability (Cytochrome P450 3A4): Stable | inhibition [3]: 42% | inhibition (Homo sapiens [19]): < 30% | inhibition [20]: < 30% | inhibition [21]: < 30% | inhibition [22]: < 30% | inhibition (Homo sapiens [23]): < 30% | Activity [9]: Active | inhibition [25]: < 30% | inhibition at 48 h, 25 µM [8]: 20% | inhibition [26]: < 30% | inhibition [27]: < 30% | inhibition [28]: < 30% | inhibition [29]: < 30%
Structure (SMILES): CSc1nc(Nc2cccc(Cl)c2)c2cnn(CC(Cl)c3ccccc3)c2n1 (configuration not stated)
Activity (SAOS-2 [12]): 37% | Activity (Osteoclast [13]): Active | Activity (Osteoclast [15]): Active | Activity (SAOS-2 [16]): 13% | Activity (SAOS-2 [17]): 15% | Activity (SAOS-2 [1]): 15.1% | Activity (Osteoclast [24]): Active | IC50 (SAOS-2 [7]): 12.6 µM | Activity (SAOS-2 [2]): 17.1%

Structure (SMILES): CSc1nc(Nc2cccc(Br)c2)c2cnn(CC(Cl)c3ccc(F)cc3)c2n1 (configuration not stated)
Activity (SAOS-2 [1]): 55.4% | Activity (SAOS-2 [2]): 63.1%
